Data: PubChem BioAssay AID330 (DTP/NCI, 2004)
Several values for one entry are separate records, joined by “and”; a condition that tells them apart may be missing. Identical values can stand only once. Toxic doses and inconclusive results are not listed. The calls were made as follows: active = survival T/C of 150% or more; inactive = T/C below 125% in these data.

Tested on: P388 leukemia ip, CD2F1 mice, survival T/C
Assay: NCI In Vivo Anticancer Drug Screen. Data for tumor model P388 Leukemia (intraperitoneal) in CD2F1 (CDF1) mice
Settings: endpoint: median survival time, higher = longer survival
Procedure, shortened: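 Mice carrying the transplanted tumor received test compound or vehicle. Survival was recorded in each group, and the value is the treated-group measurement divided by that of the vehicle-treated control group.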

[1] = dose: 50.0 mg/kg/injection, schedule: Q01DX009 (ip), vehicle: saline
[2] = dose: 100.0 mg/kg/injection, schedule: Q01DX009 (ip), vehicle: saline
[3] = dose: 200.0 mg/kg/injection, schedule: Q01DX009 (ip), vehicle: saline
[4] = dose: 100.0 mg/kg/injection, schedule: Q01DX001 (ip), vehicle: saline with Tween-80
[5] = dose: 50.0 mg/kg/injection, schedule: Q01DX005 (ip), vehicle: Klucel (hydroxypropylcellulose) (HPC)
[6] = dose: 100.0 mg/kg/injection, schedule: Q01DX005 (ip), vehicle: Klucel (hydroxypropylcellulose) (HPC)
[7] = dose: 200.0 mg/kg/injection, schedule: Q01DX005 (ip), vehicle: Klucel (hydroxypropylcellulose) (HPC)
[8] = dose: 50.0 mg/kg/injection, schedule: Q01DX009 (ip), vehicle: saline with Tween-80
[9] = dose: 100.0 mg/kg/injection, schedule: Q01DX009 (ip), vehicle: saline with Tween-80
[10] = dose: 200.0 mg/kg/injection, schedule: Q01DX009 (ip), vehicle: saline with Tween-80
[11] = dose: 60.0 mg/kg/injection, schedule: Q01DX005 (ip), vehicle: saline with Tween-80
[12] = dose: 120.0 mg/kg/injection, schedule: Q01DX005 (ip), vehicle: saline with Tween-80
[13] = dose: 240.0 mg/kg/injection, schedule: Q01DX005 (ip), vehicle: saline with Tween-80
[14] = dose: 100.0 mg/kg/injection, schedule: Q04DX003 (ip), vehicle: saline
[15] = dose: 200.0 mg/kg/injection, schedule: Q04DX003 (ip), vehicle: saline
[16] = dose: 50.0 mg/kg/injection, schedule: Q01DX005 (ip), vehicle: saline with Tween-80
[17] = dose: 100.0 mg/kg/injection, schedule: Q01DX005 (ip), vehicle: saline with Tween-80

Measured: T/C

O=P1(NCCCl)OCCCN1CCCl (configuration not stated)
active: dose: 25.0 mg/kg/injection, schedule: Q01DX009 (ip), vehicle: saline 184 % of control | dose: 30.0 mg/kg/injection, schedule: Q01DX005 (iv), vehicle: saline 157 % of control | [1] 270 % of control | dose: 60.0 mg/kg/injection, schedule: Q01DX005 (ip), vehicle: saline 195 % of control | dose: 60.0 mg/kg/injection, schedule: Q01DX005 (iv), vehicle: saline 186 % of control | [2] 282 % of control | dose: 120.0 mg/kg/injection, schedule: Q01DX005 (ip), vehicle: saline 280 % of control | dose: 120.0 mg/kg/injection, schedule: Q01DX005 (iv), vehicle: saline 241 % of control | dose: 240.0 mg/kg/injection, schedule: Q01DX005 (ip), vehicle: saline 280 % of control | dose: 240.0 mg/kg/injection, schedule: Q01DX005 (iv), vehicle: saline 252 % of control | dose: 289.0 mg/kg/injection, schedule: Q01DX001 (ip), vehicle: saline 233 % of control | dose: 431.0 mg/kg/injection, schedule: Q01DX001 (ip), vehicle: saline 582 % of control | dose: 538.0 mg/kg/injection, schedule: Q01DX001 (ip), vehicle: saline 582 % of control | dose: 646.0 mg/kg/injection, schedule: Q01DX001 (ip), vehicle: saline 242 % of control
inactive: [3] 111 % of control

C[Si](OC(=O)N(CCCl)CCCl)(c1ccccc1)c1ccccc1
inactive: dose: 3.12 mg/kg/injection, schedule: Q01DX009 (ip), vehicle: Klucel (hydroxypropylcellulose) (HPC) 103 % of control | dose: 6.25 mg/kg/injection, schedule: Q01DX009 (ip), vehicle: Klucel (hydroxypropylcellulose) (HPC) 106 % of control | dose: 12.5 mg/kg/injection, schedule: Q01DX009 (ip), vehicle: Klucel (hydroxypropylcellulose) (HPC) 113 % of control

CCOC(=O)Nc1cc(NC/C(=N/O)c2ccc(OC)cc2)c([N+](=O)[O-])c(N)n1
inactive: dose: 12.5 mg/kg/injection, schedule: Q01DX005 (ip), vehicle: saline 98 % of control | dose: 25.0 mg/kg/injection, schedule: Q01DX005 (ip), vehicle: saline 94 % of control | dose: 50.0 mg/kg/injection, schedule: Q01DX005 (ip), vehicle: saline 94 % of control

O=C(O)c1nn(-c2ccccc2)c2c1CSc1ccccc1-2
inactive: [4] 109 % of control | dose: 200.0 mg/kg/injection, schedule: Q01DX001 (ip), vehicle: saline with Tween-80 104 % of control

O[Si](c1ccccc1)(c1ccccc1)c1ccccc1.O[Si](c1ccccc1)(c1ccccc1)c1ccccc1.O[Si](c1ccccc1)(c1ccccc1)c1ccccc1.[O]=[V]
inactive: [5] 92 % of control | [6] 90 % of control | [7] 92 % of control

CN1CCN(C2=NS(=O)(=O)c3cc(Cl)ccc3N2)CC1
inactive: [8] 104 % of control | [9] 104 % of control | [10] 91 % of control

CC1=Nc2ccc(C(F)(F)F)cc2NC(=O)C1
inactive: [5] 100 % of control | [6] 99 % of control and 97 % of control | [7] 100 % of control and 96 % of control

O=C1CCCC12CCCC2=O
inactive: [8] 103 % of control | [9] 100 % of control | [10] 109 % of control

CC1=NOC(=O)/C1=C/c1ccc(Cl)cc1
inactive: [11] 99 % of control | [12] 105 % of control | [13] 104 % of control

C=C1C[C@H](O)[C@H]2C(C[Se]c3ccccc3)C(=O)O[C@@H]2[C@H]2[C@H](C)C(=O)C[C@@H]12 (some centres not stated)
inactive: [11] 97 % of control | [12] 95 % of control | [13] 92 % of control

CCc1ccc(N=Cc2ccc(OC(=O)c3ccc(OC)cc3)c(OC)c2)cc1
inactive: [11] 96 % of control | [12] 94 % of control | [13] 92 % of control

O=C(c1ccccc1)N1CCCCC1
inactive: [1] 95 % of control | [2] 100 % of control | [14] 110 % of control | [3] 100 % of control | [15] 110 % of control

CC1(C)CC23C4COC(=O)C2CCC1C3CC4=O (configuration not stated)
inactive: dose: 1.5 mg/kg/injection, schedule: Q01DX009 (ip), vehicle: DMSO 94 % of control | dose: 3.0 mg/kg/injection, schedule: Q01DX009 (ip), vehicle: DMSO 107 % of control and 94 % of control | dose: 6.0 mg/kg/injection, schedule: Q01DX009 (ip), vehicle: DMSO 104 % of control and 91 % of control | dose: 12.0 mg/kg/injection, schedule: Q01DX009 (ip), vehicle: DMSO 88 % of control and 95 % of control | dose: 24.0 mg/kg/injection, schedule: Q01DX009 (ip), vehicle: DMSO 90 % of control | dose: 48.0 mg/kg/injection, schedule: Q01DX009 (ip), vehicle: DMSO 106 % of control and 91 % of control

C[C@]12CC[C@@H](OC(=O)N(CCCl)N=O)C[C@@H]1CC[C@@H]1[C@@H]2CC[C@]2(C)C(=O)CC[C@@H]12
inactive: dose: 25.0 mg/kg/injection, schedule: Q01DX005 (ip), vehicle: other 105 % of control | dose: 25.0 mg/kg/injection, schedule: Q01DX009 (ip), vehicle: other 121 % of control | dose: 31.2 mg/kg/injection, schedule: Q04DX003 (ip), vehicle: saline 111 % of control | dose: 50.0 mg/kg/injection, schedule: Q01DX005 (ip), vehicle: other 122 % of control | dose: 50.0 mg/kg/injection, schedule: Q01DX009 (ip), vehicle: other 123 % of control | [8] 97 % of control | dose: 62.5 mg/kg/injection, schedule: Q04DX003 (ip), vehicle: saline 109 % of control | dose: 100.0 mg/kg/injection, schedule: Q01DX005 (ip), vehicle: other 114 % of control | [9] 100 % of control | dose: 125.0 mg/kg/injection, schedule: Q04DX003 (ip), vehicle: saline 108 % of control and 112 % of control | [10] 97 % of control | dose: 250.0 mg/kg/injection, schedule: Q04DX003 (ip), vehicle: saline 100 % of control

C(=NCCC[Si]12OCCN(CCO1)CCO2)c1ccco1
inactive: [5] 113 % of control | [6] 105 % of control | [7] 105 % of control

CCN(CC)CCOC(C)(C#CC(C)(O)CC)CC (configuration not stated)
inactive: [16] 100 % of control | [17] 106 % of control

CCN1c2ccccc2S(=O)(=O)n2c(COc3ccccc3)nnc21
inactive: dose: 25.0 mg/kg/injection, schedule: Q01DX001 (ip), vehicle: saline with Tween-80 95 % of control | dose: 50.0 mg/kg/injection, schedule: Q01DX001 (ip), vehicle: saline with Tween-80 95 % of control | [4] 87 % of control

CC1=CSCC(=O)N1
inactive: [9] 104 % of control | [10] 95 % of control

CN(C)c1ncnc2c1ncn2C1CCCCO1 (configuration not stated)
inactive: dose: 12.5 mg/kg/injection, schedule: Q01DX005 (ip), vehicle: Klucel (hydroxypropylcellulose) (HPC) 103 % of control | dose: 25.0 mg/kg/injection, schedule: Q01DX005 (ip), vehicle: Klucel (hydroxypropylcellulose) (HPC) 105 % of control | [5] 100 % of control

C=C1C=CC1=O
inactive: dose: 0.63 mg/kg/injection, schedule: Q01DX009 (ip), vehicle: olive oil, sesame oil, peanut oil 100 % of control | dose: 1.25 mg/kg/injection, schedule: Q01DX009 (ip), vehicle: olive oil, sesame oil, peanut oil 100 % of control and 91 % of control | dose: 2.5 mg/kg/injection, schedule: Q01DX009 (ip), vehicle: olive oil, sesame oil, peanut oil 100 % of control and 93 % of control | dose: 5.0 mg/kg/injection, schedule: Q01DX009 (ip), vehicle: olive oil, sesame oil, peanut oil 100 % of control and 104 % of control | dose: 10.0 mg/kg/injection, schedule: Q01DX009 (ip), vehicle: olive oil, sesame oil, peanut oil 99 % of control and 103 % of control

N#CC1Sc2ccccc2N1C(=O)c1ccccc1 (configuration not stated)
inactive: [16] 103 % of control | [17] 100 % of control | dose: 200.0 mg/kg/injection, schedule: Q01DX005 (ip), vehicle: saline with Tween-80 98 % of control

COc1cc2cccnc2c2[nH]c(=O)c3c(c12)CCC3
inactive: [14] 101 % of control | [15] 99 % of control

COC(/C=N/OC(=O)c1ccccc1)c1ccccc1 (configuration not stated)
inactive: dose: 25.0 mg/kg/injection, schedule: Q04DX003 (ip), vehicle: saline with Tween-80 98 % of control and 90 % of control | dose: 50.0 mg/kg/injection, schedule: Q04DX003 (ip), vehicle: saline with Tween-80 92 % of control
